# Measurements as given in US20200377459A1, “CHARGED ION CHANNEL BLOCKERS AND METHODS FOR USE” (President and Fellows of Harvard College, priority 2015, published 2020).
# Tested on: ATF3 expression in dorsal root ganglion
# Assay: ATF3 immunofluorescence in dorsal root ganglion (neurotoxicity)
# Assay type: in vivo
# Details: mice, hindpaw injection CFA+NEE 1%, 20 μl, 8 weeks earlier
# Procedure: Representative picture of ATF3 (dark shading, FIGS. 4A-4C) expression in mice dorsal root ganglion slice exposed 8 weeks earlier to an acute hindpaw injection of CFA+N-ethyl-etidocaine (Compound 21) (1%, 20 μl).
# Upon harvesting, the dorsal root ganglia were fixed overnight in 4% para-formaldehyde, washed in PBS and cryoprotected by sequential sucrose immersion (PBS 10-30% sucrose, Overnight). Ganglia were mounted in O.C.T. (Tissue-tek), and serially cut in 20 μm coronal sections with a cryostat. The sections were thaw-mounted on Fisherbrand superfrost microscopy slides and kept at −80° C. On the day of the experiment, sections were thawed at room temperature for 10 min. Sections were washed in PBS for 5 min, blocked for 1 h at room temperature (PBS, 0.1% Triton X-100, 5% BSA) and exposed to the primary antibodies (Overnight, 4° C.), namely rabbit anti-mouse ATF3 (Sigma, # HPA001562). Sections were then washed three times in PBS (5 min), exposed to the secondary antibodies and DAPI (1:2000. Sigma, # D9542) (2 h, dark), washed, coverslipped with Vectashield (Vector Labs) and observed under confocal microscope ([…], LSM-710).
# To evaluate if such toxicity occurred with NEE (Compound 21), mice were injected with a combination of CFA+NEE (1%) 8 weeks prior to DRG extraction.
compound,measurement,setting,value
"CCC[N+](CC)(CC)C(CC)C(=O)Nc1c(C)cccc1C (centres unmarked) [Compound 21, N-ethyl etidocaine]",neurotoxicity: ATF3 expression in DRG,,does not induce neurotoxicity
same,neurotoxicity: ATF3 expression in DRG,listed as NEE,No ATF3 expression was observed
